In ChEMBL document CHEMBL3046359, “QSAR and pharmacophore studies of telomerase inhibitors” (Med Chem Res, 2012):

Each compound was assayed against Telomerase reverse transcriptase (Homo sapiens) (UniProt O14746) (assay: Inhibition of telomerase in Homo sapiens (human) A549 cells after 24 hr by TRAP assay).
Assay type: cell-based

Chain of Telomerase reverse transcriptase (Homo sapiens) (O14746 whole entry): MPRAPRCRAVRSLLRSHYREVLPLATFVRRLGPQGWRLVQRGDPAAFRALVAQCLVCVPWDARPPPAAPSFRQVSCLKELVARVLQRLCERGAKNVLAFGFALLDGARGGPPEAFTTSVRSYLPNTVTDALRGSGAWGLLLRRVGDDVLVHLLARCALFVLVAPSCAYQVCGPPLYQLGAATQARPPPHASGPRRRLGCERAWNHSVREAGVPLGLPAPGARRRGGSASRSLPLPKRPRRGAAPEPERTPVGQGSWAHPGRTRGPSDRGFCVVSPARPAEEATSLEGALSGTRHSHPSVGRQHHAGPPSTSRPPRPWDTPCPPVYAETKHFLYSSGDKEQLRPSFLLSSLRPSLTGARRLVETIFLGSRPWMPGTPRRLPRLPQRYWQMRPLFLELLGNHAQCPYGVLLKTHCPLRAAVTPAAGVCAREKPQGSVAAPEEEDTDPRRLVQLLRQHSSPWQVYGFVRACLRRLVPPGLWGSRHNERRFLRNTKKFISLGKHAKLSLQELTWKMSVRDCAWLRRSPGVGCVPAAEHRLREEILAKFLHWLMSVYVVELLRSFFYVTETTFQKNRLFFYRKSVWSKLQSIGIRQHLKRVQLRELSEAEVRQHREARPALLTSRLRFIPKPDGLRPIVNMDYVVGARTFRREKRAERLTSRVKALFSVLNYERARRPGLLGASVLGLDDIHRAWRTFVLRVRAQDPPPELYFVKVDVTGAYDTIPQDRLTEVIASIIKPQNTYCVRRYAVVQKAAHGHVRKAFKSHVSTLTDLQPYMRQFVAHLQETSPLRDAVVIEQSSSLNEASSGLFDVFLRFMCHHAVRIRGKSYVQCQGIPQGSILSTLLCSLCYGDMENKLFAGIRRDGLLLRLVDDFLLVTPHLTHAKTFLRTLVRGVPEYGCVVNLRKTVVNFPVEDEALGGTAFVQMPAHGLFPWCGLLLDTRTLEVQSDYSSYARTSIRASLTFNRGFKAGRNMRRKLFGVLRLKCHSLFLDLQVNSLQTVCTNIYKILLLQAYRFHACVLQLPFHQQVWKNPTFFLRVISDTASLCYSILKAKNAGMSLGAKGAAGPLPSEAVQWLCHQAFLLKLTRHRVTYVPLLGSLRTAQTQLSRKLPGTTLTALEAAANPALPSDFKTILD

logIC50	Compound
0.45	O=C(CCN1CCCCC1)Nc1ccc2cc3ccc(NC(=O)CCN4CCCCC4)cc3nc2c1
1.11	O=C(CCN1CCCCCC1)Nc1ccc2c(c1)C(=O)c1ccc(NC(=O)CCN3CCCCCC3)cc1C2=O
0.25	O=C(CCN1CCCC1)Nc1ccc2c(c1)C(=O)c1ccc(NC(=O)CCN3CCCC3)cc1C2=O
0.65	O=C(CCN1CCCCC1)Nc1ccc2c(c1)C(=O)c1ccc(NC(=O)CCN3CCCCC3)cc1C2=O
0.49	O=C(CCN1CCCCCC1)Nc1ccc2cc3ccc(NC(=O)CCN4CCCCCC4)cc3nc2c1

Compound	logIC50
O=C(CCN1CCCC1)Nc1ccc2cc3ccc(NC(=O)CCN4CCCC4)cc3nc2c1	0.72

What follows are compounds tested against Telomerase reverse transcriptase (Homo sapiens) (UniProt O14746) (assay: Inhibition of telomerase (unknown origin)).

Compound	logIC50
C[N+]1(CCC(=O)Nc2ccc3c(c2)C(=O)c2cc(NC(=O)CC[N+]4(C)CCOCC4)ccc2-3)CCOCC1	1.44
C[N+](C)(C)CCC(=O)Nc1ccc2c(c1)C(=O)c1cc(NC(=O)CC[N+](C)(C)C)ccc1-2	1.27
CC1CCCCN1CCC(=O)Nc1ccc2c(c1)C(=O)c1cc(NC(=O)CCN3CCCCC3C)ccc1-2 (stereo unspecified)	1.08
O=C(CCN1CCC(O)CC1)Nc1ccc2c(c1)C(=O)c1cc(NC(=O)CCN3CCC(O)CC3)ccc1-2	1.27
O=C(CCN1CCCCC1CCO)Nc1ccc2c(c1)C(=O)c1cc(NC(=O)CCN3CCCCC3CCO)ccc1-2 (stereo unspecified)	1.22
Cc1oc2nc1-c1nc(co1)-c1nc(co1)-c1nc(co1)-c1nc(co1)-c1nc(co1)C1=NC(CS1)c1nc-2c(C)o1 (stereo unspecified)	-2.3
O=C(CCN1CCCCC1CO)Nc1ccc2c(c1)C(=O)c1cc(NC(=O)CCN3CCCCC3CO)ccc1-2 (stereo unspecified)	0.9
CCN(CC)CCC(=O)Nc1ccc2c(c1)C(=O)c1cc(NC(=O)CCN(CC)CC)ccc1-2	1.19
O=C(CCN1CCCCC1)Nc1ccc2c(c1)C(=O)c1cc(NC(=O)CCN3CCCCC3)ccc1-2	0.95
C[N+]1(CCC(=O)Nc2ccc3c(c2)C(=O)c2cc(NC(=O)CC[N+]4(C)CCCCC4)ccc2-3)CCCCC1	1.32
CCC1CCCCN1CCC(=O)Nc1ccc2c(c1)C(=O)c1cc(NC(=O)CCN3CCCCC3CC)ccc1-2 (stereo unspecified)	1.15
C[N+](C)(C)c1ccc(Nc2nc(N)nc(Nc3ccc([N+](C)(C)C)cc3)n2)cc1	0.84
CN1CCN(CCC(=O)Nc2ccc3c(c2)C(=O)c2cc(NC(=O)CCN4CCN(C)CC4)ccc2-3)CC1	1.64
CCN1CCN(CCC(=O)Nc2ccc3c(c2)C(=O)c2cc(NC(=O)CCN4CCN(CC)CC4)ccc2-3)CC1	1.23
C[N+]1(CCC(=O)Nc2ccc3c(c2)C(=O)c2cc(NC(=O)CC[N+]4(C)CCCCC4CO)ccc2-3)CCCCC1CO (stereo unspecified)	1.52
CC[N+](C)(CC)CCC(=O)Nc1ccc2c(c1)C(=O)c1cc(NC(=O)CC[N+](C)(CC)CC)ccc1-2	1.4

Further lines, results first:

logIC50	Compound
-1.55	CN(C)CCCNCc1ccc2nc3ccc4cc5cc(CNCCCN(C)C)ccc5nc4c3cc2c1
0.84	CCN(CC)CCOc1ccc2c(c1)OC1C(=O)c3ccccc3C(=O)C21 (stereo unspecified)
1.21	CN(C)CCC(=O)Nc1ccc2c(c1)C(=O)c1cc(NC(=O)CCN(C)C)ccc1-2
0.16	CCCNCc1cc2nc3ccccc3cc2c2cc3ccccc3nc12
-0.3	CCCNCc1ccc2nc3c(ccc4cc5cc(CNCCC)ccc5nc43)cc2c1
0.1	COc1ccc2ccc3c([nH]c4c5ccccc5nc(NCCN(C)C)c34)c2c1
1.2	CN(C)CCc1ccc2nc3c4ccccc4n(CCN(C)C)c3cc2c1
-0.3	CN(C)CCCNc1nc2ccccc2c2[nH]c3c4cc([N+](=O)[O-])ccc4ccc3c12
-1.39	CSc1nc(Nc2ccc3nc(C)cc(N(C)C)c3c2)nc(Nc2ccc3nc(C)cc(N(C)C)c3c2)n1
-0.52	CCCNCc1ccc2nc3ccc4cc5cc(CNCCC)ccc5nc4c3cc2c1
-0.89	C[n+]1cccc2cc(Nc3nc(N)nc(Nc4ccc5c(ccc[n+]5C)c4)n3)ccc21
0.3	c1ccc2nc3cc(CNCCN4CCCCC4)c4nc5ccccc5cc4c3cc2c1
0	CCCNCc1ccc2nc3ccc4nc5ccc(CNCCC)cc5cc4c3cc2c1
0	COc1ccc2c(ccc3c2[nH]c2c4ccccc4nc(NCCCN(C)C)c32)c1
-0.12	CN(C)CCCNCc1cc2nc3ccccc3cc2c2cc3ccccc3nc12
-0.04	CN(C)CCCNCc1ccc2nc3c(ccc4cc5cc(CNCCCN(C)C)ccc5nc43)cc2c1

What follows are compounds tested against Telomerase reverse transcriptase (Homo sapiens) (UniProt O14746) (assay: Inhibition of Homo sapiens (human) telomerase).

Compound	logIC50
Cc1cn(CCCn2cc(CC(=O)NCCCCCCCCCCCC(=O)O)c3ccccc32)c2ccccc12	1.3
O=C(O)CCCCCCCCCCCNC(=O)Cc1cn(CCCOC2CCCCC2)c2ccccc12	1.83
O=C(O)CCCCCCCCCCCNC(=O)Cc1cn(CCCn2ccc3ccccc32)c2ccccc12	1.96
O=C(O)CCCCCCCCCCCNC(=O)Cc1cn(CCCOc2ccccc2)c2ccccc12	1.51

Results, then the compound that gave them:

logIC50	Compound
1.91	Cc1c2n(c3ccccc13)CCCn1c-2c(CC(=O)NCCCCCCCCCCCC(=O)O)c2ccccc21
1.54	O=C(O)CCCCCCCCCCCNC(=O)Cc1cn(CCOc2cccc3ccccc23)c2ccccc12
1.61	O=C(O)CCCCCCCCCCCNC(=O)Cc1cn(CCn2ccc3ccccc32)c2ccccc12

Each compound was assayed against Telomerase reverse transcriptase (Homo sapiens) (UniProt O14746) (assay: Inhibition of telomerase in Homo sapiens (human) A549 cells by TRAP assay).
Assay type: cell-based

logIC50	Compound
1.79	O=C(O)CCCCCCCCCCCNC(=O)Cc1c2n(c3ccccc13)CCn1c-2cc2ccccc21
